Assay [1] has as its system human cardiac fibroblasts. As to the kind of experiment: TGF-β1-induced collagen production in human cardiac fibroblasts (Western blot). The following applies: co-treated with TGF-β1 for 3 days, increasing concentrations up to 1 μM. It is filed as cell-based. The protocol: D) Human cardiac fibroblasts (HCFs) were treated with TGFβ1 to induce a pro-fibrotic phenotype state in cell culture, exemplified by increased collagen-1 production, measured by Western blot. HCFs were treated with TGFβ1 alone, or in the presence of an AT2R agonist for 3 days, and the ability of AT2R agonists to inhibit TGFβ1-induced collagen-1 production was measured.
Commercially available human cardiac fibroblasts (HCF, Catalog #6300, Sciencell, Calif., USA) were grown in T75 flask maintained in an incubator at 37° C., 5% CO2. Complete media composition: M199 media (#11150-059, life technologies)+10% FBS (#10437-028, life technologies)+1% Fibroblast Growth Supplement-2 (#2382, ScienCell)+1% penicillin/streptomycin 10,000 U/ml antibiotics (#15140-122, Life Technologies). Fresh complete media was replenished every alternate day until culture reached 70% confluence in which media is replenished daily until it reached approximately 90% confluence in order to passage/subculture. To subculture, media was discarded and culture was rinsed with warm PBS. After which, culture was detached using warm 0.05% Trypsin+EDTA with gentle swirling of flask to make sure cells were not adherent to surface of flask. Trypsin was then neutralized with complete media and suspension was then transferred into a new falcon tube and centrifuged at 1000 rpm for 5 minutes. Supernatant was discarded and pellet of cells were resuspended with 5 ml of complete media, followed by cell counting. For subculturing/passaging, 1 million HCFs are placed into a T75 flask. For Picrosirius Red (PSR) staining or immunofluorescence experiments, 100 k cells were loaded per well in a 24 well plate lined with round coverslips. […]
Once treatment is complete, cells were washed with warm PBS and detached using Accutase (A6964, Sigma), with 5 minutes incubation at 37° C. […] The supernatant (˜20 ul) was transferred to a new tube and protein concentrations were measured using Biorad Lowry protein assay. Protein quantification of respective markers were performed via standard western blot analysis. […]

The subject of assay [2] is human cardiac fibroblasts. The assay can be described thus: Pro-fibrotic effect of Ang II in human cardiac fibroblasts. It is filed as cell-based.
Procedure: Commercially available human cardiac fibroblasts (HCF, Catalog #6300, Sciencell, Calif., USA) were grown in T75 flask maintained in an incubator at 37° C., 5% CO2. Complete media composition: M199 media (#11150-059, life technologies)+10% FBS (#10437-028, life technologies)+1% Fibroblast Growth Supplement-2 (#2382, ScienCell)+1% penicillin/streptomycin 10,000 U/ml antibiotics (#15140-122, Life Technologies). Fresh complete media was replenished every alternate day until culture reached 70% confluence in which media is replenished daily until it reached approximately 90% confluence in order to passage/subculture. To subculture, media was discarded and culture was rinsed with warm PBS. After which, culture was detached using warm 0.05% Trypsin+EDTA with gentle swirling of flask to make sure cells were not adherent to surface of flask. Trypsin was then neutralized with complete media and suspension was then transferred into a new falcon tube and centrifuged at 1000 rpm for 5 minutes. […]
The target of the next assay is T1, human AT2R (Homo sapiens, UniProt P50052).
T1 construct: expressed in transfected cells
T1 sequence (P50052 1-363): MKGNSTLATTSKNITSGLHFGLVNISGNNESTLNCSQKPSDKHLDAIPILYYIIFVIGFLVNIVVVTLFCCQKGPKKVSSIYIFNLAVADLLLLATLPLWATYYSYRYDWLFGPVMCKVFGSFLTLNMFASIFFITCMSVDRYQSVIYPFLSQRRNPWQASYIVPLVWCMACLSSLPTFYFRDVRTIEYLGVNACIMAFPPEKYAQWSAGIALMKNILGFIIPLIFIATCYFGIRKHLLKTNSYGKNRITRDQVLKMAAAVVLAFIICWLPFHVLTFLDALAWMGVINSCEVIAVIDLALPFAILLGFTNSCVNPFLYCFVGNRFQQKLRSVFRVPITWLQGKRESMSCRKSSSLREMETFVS
The assay can be described thus: Competition radioligand binding (125I-Sar1-Ile8-AngII) in AT2R-transfected HEK-293 cells. Particulars: for binding at AT2R (displacement of 125I-Sar1-Ile8-AngII), in words: transfected HEK-293 cells. (In a radioligand displacement assay an active substance lowers the binding of a labelled ligand.)

Another assay addresses T2, human AT1R (Homo sapiens, UniProt P30556).
T2 construct: expressed in transfected cells
T2 sequence (P30556 1-359): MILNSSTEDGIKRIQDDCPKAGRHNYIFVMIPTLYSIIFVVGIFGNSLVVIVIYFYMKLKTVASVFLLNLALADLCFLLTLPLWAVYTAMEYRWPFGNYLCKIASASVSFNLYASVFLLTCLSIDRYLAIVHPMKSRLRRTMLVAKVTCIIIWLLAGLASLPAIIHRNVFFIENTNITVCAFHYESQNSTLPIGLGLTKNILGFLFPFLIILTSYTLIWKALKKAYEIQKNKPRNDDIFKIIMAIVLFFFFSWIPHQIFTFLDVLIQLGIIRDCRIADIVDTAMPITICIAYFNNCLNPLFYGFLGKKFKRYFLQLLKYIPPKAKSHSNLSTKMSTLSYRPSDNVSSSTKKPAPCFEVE
As to the kind of experiment: Competition radioligand binding (125I-Sar1-Ile8-AngII) in AT1R-transfected HEK-293 cells.

In assay [3] the test system is male FVB/N mice on high salt diet, liver. As to the kind of experiment: High salt (5%) diet intervention model, liver. The following applies: weeks 5-8; peptides 75 pmol/kg/min s.c.; Cand 2 mg/kg/day, captopril 3 mg/kg/day. Format: in vivo, mouse. The method, then: (§1) C) In the intervention (or reversal) model, male FVB/N mice were treated with selective AT2Rs agonists after the establishment of cardiovascular disease using a high salt diet, in order to reverse cardiovascular pathologies. In some experiments, the ACE inhibitor captopril (dose) or the ARB candesartan cilexetil (dose) were given for 4 weeks in drinking water. Organs examined included heart, kidney and liver and these were compared to either untreated mice or high salt-fed mice that were treated with saline.
(§2) Mice were placed on either a normal rodent diet (0.35% NaCl) which acted as control or a high salt diet (5% sodium in food chow) for 8 weeks. After 4 weeks, mice were also treated subcutaneously (via osmotic mini-pump) with either saline or an AT2R agonist (75 pmol/kg/min subcutaneously) for 4 weeks. Mice continued to be fed a high salt diet whilst receiving these treatments.
Liver sections used either picrosirius red staining or Masson's trichome staining as described above. Higher concentrations of picrosirius red were often used under polarized light microscopy. The liver was removed and sectioned with half of the liver placed in 10% formalin and the rest frozen in liquid nitrogen before being stored in ˜80° C. freezer for future use. Formalin fixed, paraffin embedded livers were sectioned at thickness of 4 μm and were stained with Masson's trichrome according to standard procedures for analysis of liver fibrosis. […] Sections were re-fixed in Bouin's solution for 1 hour at 56° C. to improve staining quality then rinsed in running tap water for 5-10 minutes to remove yellow colour. Following this, sections were stained in Weigert's iron hematoxylin working solution for 10 minutes. Rinsed in running warm tap water for 10 minutes. Washed in distilled water. Stained in Biebrich scarlet-acid fuchsin solution for 10-15 minutes.
Washed in distilled water. Differentiated in phosphomolybdic-phosphotungstic acid solution for 10-15 minutes or until collagen was no longer red. Sections were transferred directly (without rinse) to aniline blue solution and stained for 5-10 minutes. Rinsed briefly in distilled water and differentiated in 1% acetic acid solution for 2-5 minutes. Washed in distilled water. […] Mounted with DPX mounting medium. Quantification of liver fibrosis was performed using images captured with the Aperio scanner (Monash Histology Platform, Monash University), with ×5 magnification. Each liver section had 5 different fields of view photographed at this magnification. Percentage of interstitial and perivascular collagen was analysed and quantified using ImageJ 1.48 software (Java, NIH), and the percentage from 5 random fields of view were averaged for final percentage of collagen for that particular animal. All analysis of collagen expression was conducted in a blinded fashion.

A further assay concerns mouse aortae. The assay can be described thus: Vasorelaxation of pre-contracted mouse aortae. Particulars: 0.1-1000 nM, pre-contracted with U46619. From the text: FIG. 17: The selective AT2R ligands, β-Pro^7-Ang III and D-Arg^2-β-Pro^7-Ang III, are functional agonists in vasculature.
For assay [4], the system named is male FVB/N mice on high salt diet, heart. As to the kind of experiment: High salt (5%) diet intervention model, heart. Format: in vivo, mouse. The protocol: as §1
A high-salt diet (5% salt) model is a clinically relevant and disease-reversal model which can replicate the high salt intake by humans which is currently a growing problem in the developed countries. High salt intake induces changes in the cardiovascular system and induces remodelling and fibrosis in the heart, kidney and liver.
as §2
All mice which underwent surgery were anaesthetized with Isoflurane (Isorrane) (5% induction and 2.5% maintenance) and an incision made in the midscapular region through which osmotic minipumps (Alzet model 2004, Alza Corp) were inserted for subcutaneous drug administration. The incision area was sutured with 6/0 DY silk (Dynek Pty Ltd) and antibiotic powder applied (Cicatrin, Pfizer) followed by intramuscular injection of the analgesic Cartrophen (0.1 ml of a 1.5 mg/ml stock solution; Biopharm Australia). Systolic blood pressure (SBP) was measured using non-invasive tail-cuff plethysmography apparatus (MC4000 Blood Pressure Analysis System, Hatteras Instrument Inc) before drug treatment (week 0), and then fortnightly. At the end of the 8 week treatment period mice were weighed before being killed by overdose of isoflurane inhalation and cervical dislocation.
To measure collagen deposition, frozen sections of heart, kidney or aorta (all 5 μm thickness) were air dried for 10 minutes and were brought through 3 times xylene (2 minutes each), and 3 times absolute alcohol washes before being rinsed in tap H2O for 30 seconds. Staining with an optimal concentration of picrosirius red (in this instance 0.05% picrosirius red diluted in saturated picric acid) was performed and left for an hour. Sections were then rinsed in water and differentiated in 0.01M HCl for 2 minutes, followed by dehydration via 3 times absolute alcohol washes. Then, slides were brought through 3 times xylene washes before being cover slipped according to standard histological techniques using DPX as the mounting medium. Images were taken under ×20 magnification, using bright field (Olympus, BX51) and circularized polarized light microscopy (DM IRB, Leica) while percentage of positive interstitial collagen staining per total field of view was quantified using ImageJ 1.46 software (Java, NIH), and averaged out from a total of eight views as the final percentage collagen content in a particular animal.
Immunostaining was performed on 5 μm thick transverse frozen heart sections. These sections were air dried and fixed in ice-cold acetone for approximately 15 minutes before washing with 0.01M PBS buffer (3×10 minutes). Sections were then incubated with 10% goat serum in 0.01M PBS for 30 minutes to reduce non-specific binding. If the primary antibody is raised in goat, this pre-blocked medium is substituted with 5% BSA in PBS and Triton-X. Next, blocking buffers were removed and the primary antibody to respective markers were applied overnight at room temperature based on the following dilution and origin of the antibodies: α-SMA (1:500, Abcam), Vimentin (1:500, Santa Cruz), P-IκBα (1:200, Cell Signalling), F4/80 macrophage (1:100, Serotec). […]

Data on four molecules can be found in patent publication US11331368B2, “Angiotensin receptor agonists and uses thereof” (Monash University, priority 2017, dated 2022).

“Also recorded” adds a separate entry of the source. Where two headings read alike, the source gives them in different places. Square brackets hold non-standard residues; d marks the D form. Primed or numbered codes have the meaning given here. Ends that are not written are not given here. βVal″ = beta-form valine

Procedure for human AT2R: This will lead to the generation of IC50 values that determine the relative ability of test compounds to interact with both Angiotensin receptors.
Cells were grown to approximately 80% confluence before being re-plated into 48 well plates at 1×10^5 cells/well and grown for 48 hours at 37° C. for a whole cell competition binding assay. [125I]-Sar1Ile8Ang II at 50,000 cpm, incubated for 45 minutes at 37° C., in the absence or presence of unlabeled ligands, prepared in binding buffer (DMEM, 0.1% BSA), were used in the competition assays at concentrations ranging from 1 μM to 10 μM. For each experiment, each ligand concentration was tested in duplicate or triplicate, and each experiment was repeated at least 3 separate times. […] The ability of each ligand to inhibit specific binding of [125I]-Sar1Ile8Ang II was measured on a gamma counter with all counts corrected for NSB.

On to `CC[C@H](C)[C@H](NC(=O)[C@H](Cc1ccc(O)cc1)NC(=O)[C@@H](NC(=O)C[C@H](CCCNC(=N)N)NC(=O)[C@@H](N)CC(=O)O)C(C)C)C(=O)N[C@@H](Cc1c[nH]cn1)C(=O)N1CCC[C@H]1C(=O)N[C@@H](Cc1ccccc1)C(=O)O` [βArg-Ang II, Asp-β-Arg-Val-Tyr-Ile-His-Pro-Phe], for which the TGF-β1-induced collagen production result in assay [1] is “inhibited the TGF-β1-mediated pro-fibrotic phenotype”.
Ang II [reference compound]: the “myofibroblast differentiation (α-SMA expression)” value in assay [2] (HCFs treated with Ang II) is listed as “caused myofibroblast differentiation”. In addition, the “protein expression of collagen” value in assay [2] (varying concentrations for 3 days, Western blot) is on record as “dose-dependent increases”. Besides, at human AT2R, the “binding at AT2R (displacement of 125I-Sar1-Ile8-AngII), in words” value is listed as “readily binds”. Besides, the “binding at AT1R (displacement of 125I-Sar1-Ile8-AngII), in words” value on human AT1R is given as “readily binds”.
Consider “β-Val^3-Ang II: β-substituted Ang II peptide which only has ~50-fold AT2R:AT1R selectivity (DR[βVal″]YIHPF)”, for which, in assay [1], the TGF-β1-induced collagen production entry was “failed to inhibit”.
“D-Arg-Val-Tyr-Ile-His-β-Pro-Phe [D-Arg β-Pro-Ang III]”: in assay [3], the “liver fibrosis (picrosirius red, polarized light)” value was “normalised liver fibrosis” and the “liver steatosis (Oil Red O)” value is “significantly reduced steatosis”. For the same molecule, the “vasorelaxation of pre-contracted aortae” value with mouse aortae was “concentration-dependent vasorelaxation”. In addition, in assay [4] (75 pmol/kg/min s.c., weeks 5-8), the “myofibroblast differentiation in heart (α-SMA)” value was “fully reversed the high salt-induced myofibroblast differentiation”. In assay [4] (weeks 5-8 of high salt diet, peptides 75 pmol/kg/min s.c. mini-pump, Cand 2 mg/kg/day, captopril 3 mg/kg/day in drinking water), the “cardiac fibrosis (picrosirius red)” value is recorded as “reversed established cardiac fibrosis”. Also, the “Fold AT2R selectivity” value on human AT2R (AT2R over AT1R, Table 3) is >300,000 fold. At human AT2R (approximate or conservatively estimated), the AT2R/AT1R selectivity ratio is recorded as > 300,000 fold. Further, at human AT2R, the “binding at AT2R (displacement of 125I-Sar1-Ile8-AngII), in words” value was “high affinity”. Further, on human AT1R (listed as D-Arg^2-β-Pro^7-Ang III), the “binding at AT1R (displacement of 125I-Sar1-Ile8-AngII), in words” value was “bind poorly; also recorded: did not substantially displace”.
